Square brackets hold non-standard residues; d marks the D form. Ends that are not written are not given here. Dip = N[C@H](C(=O)O)C(c1ccccc1)c1ccccc1
Legend:
[1] = test system: rat transformed mesenchymal stem cell-derived sarcoma (rTMSC); experiment: Immunohistochemistry of rat rTMSC tumours; type: in vivo; settings: primary and secondary tumor tissues
Experimental: Pre-cultured rat transformed mesenchymal stem cell-derived sarcoma model cells (rTMSCs) were harvested in serum free RPMI-1640 and 200,000 rTMSCs were subcutaneously inoculated in the right flank into PVG rats on day ÷2 and 20,000 rTMSCs in the opposite flank on day 0. Established tumours (25 mm^2 mean tumour size) were injected intralesionally with LTX-315 (dissolved in sterile H2O with 0.9% NaC ) (n=8) or with vehicle (sterile H2O with 0.9% NaCl) (n=6). Treatment doses of LTX-315, 50 μl at […] (1 mg), were given using a 1 ml syringe (Myjector U-100, Terumo) needle 0.5×16 mm (Fine-Ject; Henke-Sass, Wolf GmbH. Injections were provided daily for three subsequent days. Tumour size was measured three times a week using a caliper and expressed as the area of an ellipse [(maximum dimension/2)×(minimum dimension/2)]. Animals were terminated when the tumor exceeded 400 mm^2.
Formalin-fixed and paraffin-embedded tissue sections were deparaffinized in xylene and graded alcohols, hydrated and washed in PBS. After antigen retrieval in sodium citrate buffer (pH 6) in a microwave oven, the endogenous peroxidase was blocked by 0.3% H2O2 for 15 min. Sections were incubated overnight at 4° C. with primary antibody; rabbit polyclonal anti-CD3 (clone A0452 Dako) or mouse monoclonal anti-CD8 (clone OX8, ab33786, Abcam). […]

A375 cells [2] = experiment: Fluorescence measurement of reactive oxygen species (DCFDA); type: cell-based, human; settings: 15 minutes of incubation, different concentrations
Experimental: A DCFDA cellular reactive oxygen species detection assay kit was purchased from abcam®, and A375 cells seeded in a 96-well Costar black clear bottom plate with 20,000 cells per well incubated in 37° C. 16 hours prior to DCFDA assay. Cells were washed with a 100 μL/well of pre-warmed PBS one time, and incubated with 20 µM of DCFDA in a buffer solution supplied with the kit at 37° C. in a cell culture incubator for 45 min, and then washed again with a buffer solution of 100 μL/well. […] The fluorescence intensity was determined at an excitation wavelength of 485 nm and an emission wavelength of 530 nm on a FLUOstar Galaxy plate reader.

A375 cells [3] = experiment: Release of ATP (luciferase bioluminescence); type: cell-based, human; settings: 5 minutes, different concentrations
Experimental: The supernatant of LTX-315-treated A375 cells was analyzed using an Enliten ATP luciferase assay kit (Promega, USA). Cells were then seeded as with an ROS assay, and treated with LTX-315 in different incubation times, from 1 to 15 minutes with two parallels, which was then conducted three times. Negative controls were untreated A375 cells exposed to serum-free media alone. Samples were diluted at 1:50 and 1:100, and analyzed with a Luminoscan RT luminometer according to the manufacturer's protocol.

A375 cells [4] = experiment: TEM electron microscopy of A375 cells; type: cell-based, human
Experimental: A375 cells were seeded at 1×10^5 cells per well in 6-well plates and allowed to grow for three days to optimize membrane structures in the culture, and the media was changed on the second day. Cells were washed twice in serum-free RPMI before being treated with LTX-315 dissolved in serum-free RPMI at 5, 10 and 25 μg/ml, with serum-free RPMI as a negative control. Cells were then washed with PBS twice before fixation for 24 hours in 4° C. with 4% formaldehyde and 1% gluteralaldehyde in a Hepes buffer at pH 7.8. Dehydration and post-fixation protocols included incubation in a 5% buffered tannic acid and incubation in a 1% osmium-reduced ferrocyanide. Ultrathin sections were prepared, and uranyl acetate (5%) and Reynolds's lead citrate were used for staining and contrasting. Samples were examined on a JEOL JEM-1010 transmission electron microscope, and images were taken with an Olympus Morada side-mounted TEM CCD camera (Olympus soft imaging solutions, GmbH, Germany).

Murine B16 melanoma = experiment: immunoSEQ TCR repertoire characterisation after intratumoural LTX-315; type: in vivo, mice
Experimental: This study was carried out using an “immunoSEQ™” T cell receptor (TCR) repertoire characterisation platform by Adaptive Biotechnologies™. The platform combines novel multiplex PCR1 with highly optimized primer sets and deep sequencing techniques that exclusively target TCR genes. The immunoSEQ platform enables researchers to analyse the adaptive immune system with exceptional depth and specificity.
Murine B16 melanoma cells were harvested, washed and injected intradermally in ten mice. 8 days after tumour injection, peptide treatment was initiated using single intratumoural injections of LTX-315 (1.0 mg LTX-315/50 μl saline) once or twice in five mice. Vehicle control of saline only (0.9% NaCl in sterile H2O) was administered to the other five mice. Animals were then euthanized on day 15.
Tumour tissue (10 mg) and whole blood (150-200 μl) was taken from each mouse for TCR repertoire characterisation analysis. Blood samples provide information regarding the immune repertoire in the periphery, whilst the tumour samples provide a focused view of the repertoire.
Sequence analysis was carried out by Adaptive Biotechnologies™ at a survey-level resolution with respect to the tissue samples and at a deep-level resolution with respect to the blood samples.
Clonality quantitates the extent of mono-or oligoclonal expansion by measuring the shape of the clone frequency distribution. Values range from 0 to 1, where values approaching 1 indicate a nearly monoclonal population. FIG. 15 provides example distribution curves of populations with a clonality of 0.05 (A) and of 0.32 (B).

[5] = test system: Human osteosarcoma U2OS cells; experiment: Transmission electron microscopy of U2OS cells after LTX-315; type: cell-based
Experimental: Cytoplasmic membrane disintegration was carried out as described in FORVEILLE S. et al., Cell Cycle 2015, 14: 3506-12.
Human osteosarcoma U2OS cells were cultured in Glutamax-containing DMEM medium supplemented with 10% fetal calf serum (FCS), and […] HEPES buffer. Cells were grown at 37° C. in a humidified incubator under a 5% CO2 atmosphere.
For ultrastructural studies, human osteosarcoma U2OS cells were fixed in 1.6% glutaraldehyde (v/v in 0.1 M phosphate buffer) for 1 h, collected by scraping, centrifuged and the pellet was post-fixed 1% osmium tetroxide (w/v in 0.1 M phosphate buffer). Following dehydration through a graded ethanol series, cells were embedded in Epon™ 812 and ultrathin sections were stained with standard uranyl acetate and lead citrate. Images were taken using a Tecnai 12 electron microscope (FEI, Eindhoven, the Netherlands).

**Q.** “K-K-W-W-K-K-W-Dip-K-NH2 (KKWWKKW[Dip]K-NH2) [LTX-315]” was tested. Which “infiltration of CD3+ and CD8+ cells (immunohistochemistry)” value [1] did it give?
**A.** The value was “increased infiltration of CD3^+ and CD8^+ cells”.

**Q.** What about the ROS generation (A375 cells [2]) of the same substance?
**A.** The ROS generation was “Significant amounts of ROS were generated”.

**Q.** And the “ATP in the supernatant” value (A375 cells [3])?
**A.** Its value is “detected in the supernatant as early as after 5 minutes of treatment”.

**Q.** What about the cells with vacuolization (A375 cells [4]; 3.5 μM) of the same substance?
**A.** Its cells with vacuolization is “approximately 20%”.

**Q.** What about the “number of necrotic cells” value (A375 cells [4]; 3.5 μM, 60 minutes) of the same substance?
**A.** Its value is “less than 5%”.

**Q.** What about the ultrastructural changes (A375 cells [4]; 3.5 μM, 60 minutes) of the same substance?
**A.** Its ultrastructural changes is “showed vacuolization, as well as some altering of the mitochondrial morphology”.

**Q.** And the cells displaying vacuolization (A375 cells [4]; 17 μM, 60 min)?
**A.** The cells displaying vacuolization was 4%.

**Q.** What about the “cells with necrotic morphology and loss of plasma membrane integrity” value (A375 cells [4]; 17 μM, 60 min) of the same substance?
**A.** Its value is “approximately 40%”.

**Q.** And the “mode of cell killing” value (A375 cells [4]; TEM, A375 cells)?
**A.** Its value is “kills the tumor cells with a lytic mode of action”.

**Q.** And the “TCR Template Molecules” value (Murine B16 melanoma; Blood)?
**A.** Its value is 135,283.

**Q.** And the “TCRs (T cell estimate) per nucleated cell (%)” value (Murine B16 melanoma; Blood)?
**A.** The value was 17.4%.

**Q.** What about the “Unique TCRs” value (Murine B16 melanoma; Blood) of the same substance?
**A.** The value was 116,120.

**Q.** And the “TCR Template Molecules” value (Murine B16 melanoma; Tissue (tumour))?
**A.** Its value is 12,331.

**Q.** What about the “cell morphology after administration (TEM)” value [5] of the same substance?
**A.** The value was “necrotic morphology with disintegration of cytoplasmic membranes”.

Reference: patent publication US20250002854A1, “METHODS OF GENERATING POPULATIONS OF TUMOUR-INFILTRATING T CELLS” (LYTIX BIOPHARMA AS, priority 2016, published 2025)
